Reference: patent publication US12077503B2, “Substituted cyclic amides and their use as herbicides” (FMC CORPORATION, priority 2015, dated 2024)
Where two headings read alike, the source gives them in different places.

Assays:
Type in all cases: in vivo
[1] = system: Kochia (Kochia scoparia); assay: Test A preemergence; details: Bassia scoparia, pre-emergence, 240 h; for pest or weed control at 125 g/ha: 125 g ai/ha; for pest or weed control at 500 g/ha: 500 g ai/ha
How it was run: (§1)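 Visual injury, scored on a 0–100 scale relative to untreated controls, was recorded about 10 d after application. Treatments were a preemergence soil spray over planted seeds or a postemergence spray on plants at the one- to two-leaf stage, 2 to 10 cm tall, all in loam soil–sand blend in the greenhouse.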

[2] = system: barnyardgrass (Echinochloa crus-galli); assay: Test A preemergence; details: Echinochloa crus-galli, pre-emergence, 240 h; for pest or weed control at 125 g/ha: 125 g ai/ha; for pest or weed control at 500 g/ha: 500 g ai/ha
How it was run: as §1

[3] = system: giant foxtail (Setaria faberii); assay: Test A preemergence; details: Setaria faberi, pre-emergence, 240 h; for pest or weed control at 125 g/ha: 125 g ai/ha; for pest or weed control at 500 g/ha: 500 g ai/ha
How it was run: as §1

[4] = system: pigweed (Amaranthus retroflexus); assay: Test A preemergence; details: Amaranthus retroflexus, pre-emergence, 240 h; for pest or weed control at 125 g/ha: 125 g ai/ha; for pest or weed control at 500 g/ha: 500 g ai/ha
[5] = system: ragweed (common ragweed, Ambrosia elatior); assay: Test A preemergence; details: Ambrosia artemisiifolia, pre-emergence, 240 h; for pest or weed control at 125 g/ha: 125 g ai/ha; for pest or weed control at 500 g/ha: 500 g ai/ha
How it was run: as §1

[6] = system: ryegrass, Italian (Italian ryegrass, Lolium multiflorum); assay: Test A preemergence; details: Lolium multiflorum, pre-emergence, 240 h; for pest or weed control at 125 g/ha: 125 g ai/ha; for pest or weed control at 500 g/ha: 500 g ai/ha
How it was run: as §1

[7] = system: Galium (catchweed bedstraw, Galium aparine); assay: Test A postemergence; details: Galium, post-emergence, 240 h, Postemergence; for pest or weed control at 125 g/ha: 125 g ai/ha, visual rating about 10 d after treatment, read-out: Galium plant response rating (0 to 100 scale); for pest or weed control at 500 g/ha: 500 g ai/ha, visual injury, 0 to 100 scale (0 no effect, 100 complete control), approx. 10 d, read-out: Plant response rating, Galium
How it was run: as §1

[8] = system: barnyardgrass (Echinochloa crus-galli); assay: Test A postemergence; details: Echinochloa crus-galli, post-emergence, 240 h, Postemergence; for pest or weed control at 125 g/ha: 125 g ai/ha, visual rating about 10 d after treatment, read-out: Barnyardgrass plant response rating (0 to 100 scale, 0 no effect, 100 complete control); for pest or weed control at 500 g/ha: 500 g ai/ha, visual injury, 0 to 100 scale (0 no effect, 100 complete control), approx. 10 d, read-out: Plant response rating, Barnyardgrass
How it was run: as §1

[9] = system: giant foxtail (Setaria faberii); assay: Test A postemergence; details: Setaria faberi, post-emergence, 240 h, Postemergence; for pest or weed control at 125 g/ha: 125 g ai/ha, visual rating about 10 d after treatment, read-out: Foxtail, Giant plant response rating (0 to 100 scale); for pest or weed control at 500 g/ha: 500 g ai/ha, visual injury, 0 to 100 scale (0 no effect, 100 complete control), approx. 10 d, read-out: Plant response rating, Foxtail, Giant
How it was run: as §1

[10] = system: wheat (Triticum aestivum); assay: Test A postemergence; details: Triticum aestivum, post-emergence, 240 h, Postemergence; for plant injury at 125 g/ha: 125 g ai/ha, visual rating about 10 d after treatment, read-out: Wheat plant response rating (0 to 100 scale); for plant injury at 500 g/ha: 500 g ai/ha, visual injury, 0 to 100 scale (0 no effect, 100 complete control), approx. 10 d, read-out: Plant response rating, Wheat
How it was run: as §1

[11] = system: barnyardgrass (Echinochloa crus-galli); assay: Test B flooded paddy test; details: Echinochloa crus-galli, 250 g ai/ha, Flood; 0 to 100 scale where 0 is no effect and 100 is complete control; read-out: Barnyardgrass plant response rating
How it was run: (§2)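 Percent control, visually estimated after 13–15 d in the greenhouse on a 0–100 basis, compares treated pots with untreated ones; compound was put into paddy water 3 cm above the soil when plants had two leaves.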

[12] = system: ducksalad (Heteranthera limosa); assay: Test B flooded paddy test; details: Heteranthera limosa, 250 g ai/ha, Flood; 0 to 100 scale where 0 is no effect and 100 is complete control; read-out: Ducksalad plant response rating
How it was run: as §2

[13] = system: rice (Oryra sativa); assay: Test B flooded paddy test; details: Oryza sativa, 250 g ai/ha, Flood; 0 to 100 scale where 0 is no effect and 100 is complete control; read-out: Rice plant response rating
How it was run: as §2

[14] = system: sedge, umbrella (small-flower umbrella sedge, Cyperus difformis); assay: Test B flooded paddy test; details: Cyperus difformis, 250 g ai/ha, Flood
How it was run: as §2

[15] = preemergence, visual injury rating, 0 to 100 scale where 0 is no effect and 100 is complete control, approximately 10 d, read-out: Kochia plant response rating
[16] = preemergence, 0 to 100 scale where 0 is no effect and 100 is complete control, read-out: Kochia plant response rating
[17] = preemergence, visual injury rating, 0 to 100 scale where 0 is no effect and 100 is complete control, approximately 10 d, read-out: Barnyardgrass plant response rating
[18] = preemergence, 0 to 100 scale where 0 is no effect and 100 is complete control, read-out: Barnyardgrass plant response rating
[19] = preemergence, visual injury rating, 0 to 100 scale where 0 is no effect and 100 is complete control, approximately 10 d, read-out: Foxtail, Giant plant response rating
[20] = preemergence, 0 to 100 scale where 0 is no effect and 100 is complete control, read-out: Foxtail, Giant plant response rating
[21] = preemergence, visual injury rating, 0 to 100 scale where 0 is no effect and 100 is complete control, approximately 10 d, read-out: Pigweed plant response rating
[22] = preemergence, 0 to 100 scale where 0 is no effect and 100 is complete control, read-out: Pigweed plant response rating
[23] = preemergence, visual injury rating, 0 to 100 scale where 0 is no effect and 100 is complete control, approximately 10 d, read-out: Ragweed plant response rating
[24] = preemergence, 0 to 100 scale where 0 is no effect and 100 is complete control, read-out: Ragweed plant response rating
[25] = preemergence, visual injury rating, 0 to 100 scale where 0 is no effect and 100 is complete control, approximately 10 d, read-out: Ryegrass, Italian plant response rating
[26] = preemergence, 0 to 100 scale where 0 is no effect and 100 is complete control, read-out: Ryegrass, Italian plant response rating
[27] = 0 to 100 scale where 0 is no effect and 100 is complete control, read-out: Sedge, Umbrella plant response rating
[28] = Preemergence, 0 to 100 scale (0 no effect, 100 complete control), read-out: Plant response rating, Kochia
[29] = Preemergence, 0 to 100 scale (0 no effect, 100 complete control), read-out: Plant response rating, Barnyardgrass
[30] = Preemergence, 0 to 100 scale (0 no effect, 100 complete control), read-out: Plant response rating, Foxtail, Giant
[31] = Preemergence, 0 to 100 scale (0 no effect, 100 complete control), read-out: Plant response rating, Pigweed
[32] = Preemergence, 0 to 100 scale (0 no effect, 100 complete control), read-out: Plant response rating, Ragweed
[33] = Preemergence, 0 to 100 scale (0 no effect, 100 complete control), read-out: Plant response rating, Ryegrass, Italian
[34] = 360 h, visually evaluated after 13 to 15 d, read-out: Plant response rating, Sedge, Umbrella (0 to 100 scale where 0 is no effect and 100 is complete control)

SMILES	pest or weed control at 125 g/ha [1, 15] [%]	pest or weed control at 500 g/ha [1, 16] [%]	pest or weed control at 125 g/ha [2, 17] [%]	pest or weed control at 500 g/ha [2, 18] [%]	pest or weed control at 125 g/ha [3, 19] [%]	pest or weed control at 500 g/ha [3, 20] [%]	pest or weed control at 125 g/ha [4, 21] [%]	pest or weed control at 500 g/ha [4, 22] [%]	pest or weed control at 500 g/ha [5, 24] [%]	pest or weed control at 125 g/ha [7] [%]	pest or weed control at 500 g/ha [7] [%]	pest or weed control at 125 g/ha [8] [%]	pest or weed control at 500 g/ha [8] [%]	pest or weed control at 125 g/ha [9] [%]	pest or weed control at 500 g/ha [9] [%]	plant injury at 125 g/ha [10] [%]	plant injury at 500 g/ha [10] [%]	pest or weed control at 250 g/ha [11] [%]	pest or weed control at 250 g/ha [12] [%]	pest or weed control at 250 g/ha [13] [%]	also measured
COc1cc([C@H]2CN(C)C(=O)[C@@H]2C(=O)Nc2ccccc2SC)ccc1F [Compound 1301]	30	60	30	90	90	90	0	30	20	20	60	20	90	20	20	0	0	0	20	0	pest or weed control at 125 g/ha [5, 23]: 0%; pest or weed control at 125 g/ha [6, 25]: 0%; pest or weed control at 500 g/ha [6, 26]: 0%; pest or weed control at 250 g/ha [14, 27]: 0%
CN1CC(c2cccc(OCC=C(Cl)Cl)c2)C(C(=O)Nc2cccc(F)c2F)C1=O (stereo not shown) [Compound 1303]	0	0	0	30	40	90	0	30	0	0	0	0	30	40	60	0	0	0	0	0	pest or weed control at 125 g/ha [5, 23]: 0%; pest or weed control at 125 g/ha [6, 25]: 0%; pest or weed control at 500 g/ha [6, 26]: 0%; pest or weed control at 250 g/ha [14, 27]: 0%
Cc1c(F)cccc1NC(=O)[C@H]1C(=O)NC[C@@H]1c1cccc2c1OC(F)(F)O2 [Compound 1305]	0	0	70	90	90	90	0	0	0	0	0	60	80	80	90	0	20	20	70	0	pest or weed control at 125 g/ha [5, 23]: 0%; pest or weed control at 125 g/ha [6, 25]: 0%; pest or weed control at 500 g/ha [6, 26]: 0%; pest or weed control at 250 g/ha [14, 27]: 0%
CN1C[C@H](c2cccc(C(C)(F)F)c2)[C@@H](C(=O)Nc2cccc(F)c2F)C1=O [Compound 1316]		80		90		90		80	70	60	60	90	90	90	90	60	80	75	90	0	pest or weed control at 125 g/ha [1, 28]: 80%; pest or weed control at 125 g/ha [2, 29]: 90%; pest or weed control at 125 g/ha [3, 30]: 90%; pest or weed control at 125 g/ha [4, 31]: 70%; pest or weed control at 125 g/ha [5, 32]: 0%; pest or weed control at 125 g/ha [6, 33]: 70%; pest or weed control at 250 g/ha [14, 34]: 0%
CN1C[C@H](c2cccc(C(C)(F)F)c2)[C@@H](C(=O)Nc2ccccc2F)C1=O [Compound 1317]		80		90		100		60	40	60	60	90	90	90	90	60	60	85	100	0	pest or weed control at 125 g/ha [1, 28]: 60%; pest or weed control at 125 g/ha [2, 29]: 90%; pest or weed control at 125 g/ha [3, 30]: 90%; pest or weed control at 125 g/ha [4, 31]: 0%; pest or weed control at 125 g/ha [5, 32]: 0%; pest or weed control at 125 g/ha [6, 33]: 20%; pest or weed control at 250 g/ha [14, 34]: 0%
